Results on four compounds are retold here after ChEMBL document CHEMBL1135030, “Antitumor agents. Part 212. Bucidarasins A-C, three new cytotoxic clerodane diterpenes from Bucida buceras” (Bioorg Med Chem Lett, 2002).

For assay [1], the system named is KB. Nature of the assay: In vitro cytotoxicity against parental and drug resistant camptothecin resistant human tumor cell line KB-CPT. The class given is functional, cell-based.
The subject of assay [2] is KB. Kind of assay: In vitro cytotoxicity against parental and drug resistant vincristine resistant human tumor cell line KB-VIN. The class given is functional, cell-based.
Assay [3] deals with HOS. Nature of the assay: In vitro cytotoxicity against parental and drug resistant bone human tumor cell line HOS. The class given is functional, cell-based.
Assay [4] concerns HCT-8. Nature of the assay: In vitro cytotoxicity against parental and drug resistant ileococal human tumor cell line HCT-8. The class given is functional, cell-based.
Assay [5] has as its system KB. Nature of the assay: In vitro cytotoxicity against parental and drug resistant etoposide resistant human tumor cell line KB-7d. The class given is functional, cell-based.
Assay [6] has as its system U-87 MG. Nature of the assay: In vitro cytotoxicity against parental and drug resistant glioblastoma human tumor cell line U87MG. The class given is functional, cell-based, U-87MG ATCC.
Assay [7] concerns 1A9/ptx-10. Nature of the assay: In vitro cytotoxicity against parental and drug resistant paclitaxel human tumor cell line IA9-PTX10. The class given is functional, cell-based.
Assay [8] relates to CAKI-1. Kind of assay: In vitro cytotoxicity against parental and drug resistant kidney human tumor cell line CAKI. The class given is functional, cell-based.
The subject of assay [9] is KB. Nature of the assay: In vitro cytotoxicity against parental and drug resistant nasopharyngeal human tumor cell line KB. The class given is functional, cell-based.
Assay [10] deals with SK-MEL-2. Kind of assay: In vitro cytotoxicity against parental and drug resistant melanoma human tumor cell line SK-MEL-2. The class given is functional, cell-based.
Assay [11] deals with 1A9. Nature of the assay: In vitro cytotoxicity against parental and drug resistant ovarian human tumor cell line IA9. The class given is functional, cell-based.
Assay [12] has as its system MCF7. Kind of assay: In vitro cytotoxicity against parental and drug resistant breast human tumor cell line MCF-7. The class given is functional, cell-based.
Assay [13] relates to A549. Kind of assay: In vitro cytotoxicity against parental and drug resistant lung human tumor cell line A549. The class given is functional, cell-based.
Assay [14] relates to CAKI-1. Kind of assay: In vitro cytotoxicity against parental and drug resistant kidney human tumor cell line CAKI; Not active at 10 uM. In kind it is functional, cell-based.
Assay [15] relates to A549. Kind of assay: Percentage inhibition against parental and drug resistant lung human tumor cell line A549 at 10 uM. In kind it is functional.
For assay [16], the system named is HOS. Nature of the assay: In vitro cytotoxicity against parental and drug resistant bone human tumor cell line HOS; Not active at 10 uM. In kind it is functional, cell-based.
For assay [17], the system named is MCF7. Nature of the assay: In vitro cytotoxicity against parental and drug resistant breast human tumor cell line MCF-7 at 10 uM. In kind it is functional.
The subject of assay [18] is KB. Kind of assay: Percentage inhibition against parental and drug resistant nasopharyngeal human tumor cell line KB at 10 uM. The class given is functional.
For assay [19], the system named is KB. Kind of assay: Percentage inhibition against parental and drug resistant etoposide resistant human tumor cell line KB-7d at 10 uM. In kind it is functional.
Assay [20] relates to 1A9/ptx-10. Nature of the assay: In vitro cytotoxicity against parental and drug resistant paclitaxel human tumor cell line IA9-PTX10; Not active at 10 uM. In kind it is functional, cell-based.
Assay [21] deals with KB. Nature of the assay: In vitro cytotoxicity against parental and drug resistant camptothecin resistant human tumor cell line KB-CPT; Not active at 10 uM. The class given is functional, cell-based.
Assay [22] relates to SK-MEL-2. Nature of the assay: Percentage inhibition against parental and drug resistant melanoma human tumor cell line SK-MEL-2 at 10 uM. In kind it is functional.
Assay [23] has as its system U-87 MG. Kind of assay: In vitro cytotoxicity against parental and drug resistant glioblastoma human tumor cell line U87MG; Not active at 10 uM. In kind it is functional, cell-based. The conditions noted are these: u-87mg atcc.
The test system of assay [24] is KB. Nature of the assay: Percentage inhibition against parental and drug resistant vincristine resistant human tumor cell line KB-VIN at 10 uM. The class given is functional.
For assay [25], the system named is HCT-8. Nature of the assay: In vitro cytotoxicity against parental and drug resistant ileococal human tumor cell line HCT-8; Not active at 10 uM. In kind it is functional, cell-based.
In assay [26] the test system is KB. Kind of assay: Tested for cytotoxicity against parental and drug resistant etoposide resistant human tumor cell line KB-7d. In kind it is functional, cell-based.
Assay [27] has as its system 1A9. Nature of the assay: In vitro cytotoxicity against parental and drug resistant ovarian human tumor cell line IA9; Not active at 10 uM. The class given is functional, cell-based.

For `C=C/C(C)=C/C[C@@]1(C)[C@@H](C)C[C@@H](O)C23C(=C[C@@H](OC(=O)C(C)C)C[C@@H]21)[C@H](OC(C)=O)O[C@@H]3OC(C)=O` (stereo partly drawn), the IC50 in assay [1] was 0.8 µM; in assay [2] it was 1.1 µM; in assay [3], 0.8 µM; in assay [4] it was 0.9 µM; in assay [5], 0.8 µM; in assay [6], 1 µM. Also, the concentration for half-maximal inhibition (IC50) in assay [7] amounted to 0.5 µM; in assay [8], 1.1 µM; in assay [9], 0.9 µM; in assay [10], 0.7 µM; in assay [11], 0.5 µM; in [12], 0.9 µM. In assay [13], the concentration for half-maximal inhibition (IC50) worked out at 0.5 µM.

Turning to `C=C/C(C)=C/C[C@@]1(C)[C@@H](C)CC[C@]2(COC(C)=O)C(COC(C)=O)=CC(=O)C[C@@H]21`, the IC50 result in [14] was “Not Active”; in [2], above 10 µM; in assay [16] it was “Not Active”; in [20] it was “Not Active”; in assay [21], “Not Active”; in assay [23] it was “Not Active”. In addition, the half-maximal inhibitory concentration (IC50) was above 10 µM in [9]; “Not Active” in assay [25]; above 10 µM in [10]; above 10 µM in [26]; “Not Active” in [27]; above 10 µM in assay [12]. In assay [13], the half-maximal inhibitory concentration (IC50) is above 10 µM. The inhibition at 10 µM in assay [15] turned out to be 6%; in [17] it was 12%; in assay [18] it was 7%; in [19], 23%; in assay [22] it was 7%; in [24], 22%.

In the case of `C=C/C(C)=C/C[C@@]1(C)[C@@H](C)CCC23C(=C[C@@H](OC(=O)C(C)C)C[C@@H]21)[C@H](OC(C)=O)O[C@@H]3OC(C)=O` (stereo partly drawn), the half-inhibitory concentration (IC50) amounted to 0.9 µM in assay [1]; 1 µM in assay [2]; 0.9 µM in assay [3]; 1 µM in assay [4]; 0.9 µM in [5]; 1.2 µM in assay [6]. For the same compound, the IC50 came out at 0.5 µM in [7]; 1.8 µM in assay [8]; 0.9 µM in assay [9]; 1 µM in assay [10]; 0.6 µM in [11]; 1.1 µM in [12]. Further, the IC50 in [13] was 1.1 µM.

In the case of `C=C/C(C)=C/C[C@]1(C)[C@H]2C[C@H](OC(=O)C(C)CC)C=C3[C@H](OC(C)=O)O[C@H](OC(C)=O)[C@@]32[C@H](O)C[C@@H]1C` (stereo partly drawn) [CASEARLUCIN A], the IC50 in [1] stood at 1.1 µM; in assay [2], 1.2 µM; in assay [3], 1.2 µM; in assay [4], 1.3 µM; in assay [5], 1.1 µM; in assay [6], 1.4 µM. In addition, the 50% inhibitory concentration (IC50) in assay [7] came out at 1.1 µM; in assay [8], 1.9 µM; in assay [9], 1.1 µM; in assay [10] it was 1 µM; in assay [11], 1 µM; in [12], 1.8 µM. Besides, in [13], the concentration for half-maximal inhibition (IC50) turned out to be 1.1 µM.
